This is an account of results in ChEMBL document CHEMBL5465560, “Selectivity Literature for EUbOPEN Chemogenomic Library” (2024).

Assay [1] addresses T1, Discoidin domain-containing receptor 2 (Homo sapiens) (UniProt Q16832).
T1 sequence (whole entry): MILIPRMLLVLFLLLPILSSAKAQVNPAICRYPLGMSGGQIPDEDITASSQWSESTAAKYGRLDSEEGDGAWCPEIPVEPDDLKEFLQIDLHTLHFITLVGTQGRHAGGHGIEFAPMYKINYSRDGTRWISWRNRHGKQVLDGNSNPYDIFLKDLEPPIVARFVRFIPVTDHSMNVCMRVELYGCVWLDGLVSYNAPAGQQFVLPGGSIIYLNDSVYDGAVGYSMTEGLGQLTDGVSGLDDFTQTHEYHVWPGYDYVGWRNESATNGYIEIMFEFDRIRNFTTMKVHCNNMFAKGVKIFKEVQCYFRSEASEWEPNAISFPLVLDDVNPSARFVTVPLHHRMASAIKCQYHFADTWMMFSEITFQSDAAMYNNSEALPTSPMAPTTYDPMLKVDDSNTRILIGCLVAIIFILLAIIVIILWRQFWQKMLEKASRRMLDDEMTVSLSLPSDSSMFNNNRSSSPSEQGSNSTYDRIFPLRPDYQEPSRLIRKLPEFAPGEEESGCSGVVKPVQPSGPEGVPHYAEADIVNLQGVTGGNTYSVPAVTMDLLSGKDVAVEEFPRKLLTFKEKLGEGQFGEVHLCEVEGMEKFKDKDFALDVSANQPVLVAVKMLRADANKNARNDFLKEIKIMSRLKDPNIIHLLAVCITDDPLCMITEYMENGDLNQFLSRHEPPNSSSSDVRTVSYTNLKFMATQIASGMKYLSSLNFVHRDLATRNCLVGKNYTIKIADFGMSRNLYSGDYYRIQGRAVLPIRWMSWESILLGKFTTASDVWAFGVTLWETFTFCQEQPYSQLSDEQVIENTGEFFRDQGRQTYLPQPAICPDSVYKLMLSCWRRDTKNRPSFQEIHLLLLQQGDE
Description: Selectivity interaction (Upstate Kinase Profiler service (Millipore)) EUB0000056c DDR2. To be noted: at 1 µM.

Assay [2] has as its target Protein kinase C beta type (Homo sapiens, UniProt P05771). Description: Selectivity interaction (Upstate Kinase Profiler service (Millipore)) EUB0000056c PRKCB. The following applies: at 1 µM.
The target in assay [3] is Ephrin type-A receptor 5 (Homo sapiens) (UniProt P54756). Description: Selectivity interaction (ProQinase) EUB0000171b EPHA5.
Sequence of Ephrin type-A receptor 5 (Homo sapiens) (P54756 whole entry): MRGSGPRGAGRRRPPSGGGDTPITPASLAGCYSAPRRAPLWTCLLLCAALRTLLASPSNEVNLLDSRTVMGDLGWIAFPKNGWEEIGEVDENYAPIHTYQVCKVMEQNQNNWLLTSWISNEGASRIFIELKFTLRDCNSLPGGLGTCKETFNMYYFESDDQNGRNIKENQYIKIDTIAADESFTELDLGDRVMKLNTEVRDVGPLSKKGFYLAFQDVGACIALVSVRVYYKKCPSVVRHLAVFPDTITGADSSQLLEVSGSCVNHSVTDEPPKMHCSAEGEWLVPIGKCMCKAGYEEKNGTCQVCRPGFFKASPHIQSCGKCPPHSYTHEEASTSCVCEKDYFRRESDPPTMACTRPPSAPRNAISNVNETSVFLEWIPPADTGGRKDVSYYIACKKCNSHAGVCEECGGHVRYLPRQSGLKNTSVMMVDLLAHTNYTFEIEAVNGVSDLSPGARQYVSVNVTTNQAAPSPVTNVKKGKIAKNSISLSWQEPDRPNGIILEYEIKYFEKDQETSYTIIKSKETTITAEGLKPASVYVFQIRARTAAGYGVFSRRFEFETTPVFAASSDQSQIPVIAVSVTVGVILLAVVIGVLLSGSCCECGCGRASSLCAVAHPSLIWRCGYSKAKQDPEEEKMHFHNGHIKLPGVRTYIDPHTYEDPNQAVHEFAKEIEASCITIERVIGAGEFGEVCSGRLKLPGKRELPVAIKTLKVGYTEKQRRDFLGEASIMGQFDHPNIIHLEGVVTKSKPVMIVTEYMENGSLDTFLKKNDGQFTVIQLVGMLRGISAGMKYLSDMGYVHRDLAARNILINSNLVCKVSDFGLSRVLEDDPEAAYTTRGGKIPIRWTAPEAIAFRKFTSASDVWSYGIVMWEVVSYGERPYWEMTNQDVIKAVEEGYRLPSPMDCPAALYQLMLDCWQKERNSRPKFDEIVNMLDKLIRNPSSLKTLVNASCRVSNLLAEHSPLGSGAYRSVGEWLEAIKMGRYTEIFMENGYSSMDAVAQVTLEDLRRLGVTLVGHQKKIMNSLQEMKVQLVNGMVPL
Assay [4] deals with T2, Mitogen-activated protein kinase kinase kinase kinase 2 (Homo sapiens) (UniProt Q12851).
T2 sequence (whole entry): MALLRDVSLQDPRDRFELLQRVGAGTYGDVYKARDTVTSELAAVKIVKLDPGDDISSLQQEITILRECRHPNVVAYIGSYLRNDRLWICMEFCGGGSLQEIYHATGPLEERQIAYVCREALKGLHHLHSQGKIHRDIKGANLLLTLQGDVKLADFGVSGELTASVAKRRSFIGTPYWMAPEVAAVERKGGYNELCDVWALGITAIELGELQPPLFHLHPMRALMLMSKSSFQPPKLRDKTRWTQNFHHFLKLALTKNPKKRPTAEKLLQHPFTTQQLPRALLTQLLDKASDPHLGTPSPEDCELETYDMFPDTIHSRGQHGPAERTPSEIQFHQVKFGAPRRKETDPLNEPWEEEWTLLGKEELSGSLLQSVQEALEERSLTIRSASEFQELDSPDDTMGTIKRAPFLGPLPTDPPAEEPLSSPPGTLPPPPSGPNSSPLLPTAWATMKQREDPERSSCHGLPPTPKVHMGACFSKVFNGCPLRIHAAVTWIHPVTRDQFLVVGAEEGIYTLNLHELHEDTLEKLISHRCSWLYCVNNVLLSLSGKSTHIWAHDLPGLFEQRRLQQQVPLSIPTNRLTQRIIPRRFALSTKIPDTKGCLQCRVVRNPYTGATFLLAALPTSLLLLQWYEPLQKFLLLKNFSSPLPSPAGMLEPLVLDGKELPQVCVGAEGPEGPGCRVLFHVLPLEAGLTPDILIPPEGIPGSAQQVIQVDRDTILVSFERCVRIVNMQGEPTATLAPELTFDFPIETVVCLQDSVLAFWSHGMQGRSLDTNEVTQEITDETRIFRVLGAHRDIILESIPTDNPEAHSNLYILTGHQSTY
The following applies: at 10 µM.

For assay [5], the target named is Dual specificity protein kinase CLK2 (Homo sapiens, UniProt P49760). To be noted: at 10 µM.
For assay [6], the target named is Tyrosine-protein kinase Blk (Homo sapiens) (UniProt P51451). The assay is described as follows: Selectivity interaction (KinomeScan (DiscoverX)) EUB0000092b BLK. To be noted: at 10 µM.
Sequence of Tyrosine-protein kinase Blk (Homo sapiens) (P51451 2-505 limits assumed): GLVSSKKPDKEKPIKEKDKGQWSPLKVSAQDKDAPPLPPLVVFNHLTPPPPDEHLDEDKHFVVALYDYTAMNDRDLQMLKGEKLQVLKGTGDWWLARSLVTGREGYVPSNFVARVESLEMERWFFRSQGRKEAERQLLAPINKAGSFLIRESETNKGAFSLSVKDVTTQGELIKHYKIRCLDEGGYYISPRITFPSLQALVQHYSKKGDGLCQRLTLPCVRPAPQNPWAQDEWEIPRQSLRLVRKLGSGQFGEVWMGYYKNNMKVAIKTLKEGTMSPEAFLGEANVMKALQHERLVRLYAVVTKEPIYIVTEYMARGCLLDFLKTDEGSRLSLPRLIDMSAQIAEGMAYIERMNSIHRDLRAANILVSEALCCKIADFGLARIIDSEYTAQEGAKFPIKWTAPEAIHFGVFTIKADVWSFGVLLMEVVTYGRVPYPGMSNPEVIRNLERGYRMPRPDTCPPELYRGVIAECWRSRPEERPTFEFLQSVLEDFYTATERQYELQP
Assay [7] deals with Serine/threonine-protein kinase MARK2 (Homo sapiens) (UniProt Q7KZI7). Description: Selectivity interaction (KinomeScan (DiscoverX)) EUB0000666a MARK2. The following applies: at 10 µM.
For assay [8], the target named is Serine/threonine-protein kinase 38 (Homo sapiens) (UniProt Q15208). Description: Selectivity interaction (LanthaScreen Eu Kinase Binding Assay) EUB0001632a STK38. To be noted: at 10 µM. A general note: In TR-FRET formats the signal depends on donor and acceptor labels being close together.
Sequence of Serine/threonine-protein kinase 38 (Homo sapiens) (Q15208 2-465 limits assumed): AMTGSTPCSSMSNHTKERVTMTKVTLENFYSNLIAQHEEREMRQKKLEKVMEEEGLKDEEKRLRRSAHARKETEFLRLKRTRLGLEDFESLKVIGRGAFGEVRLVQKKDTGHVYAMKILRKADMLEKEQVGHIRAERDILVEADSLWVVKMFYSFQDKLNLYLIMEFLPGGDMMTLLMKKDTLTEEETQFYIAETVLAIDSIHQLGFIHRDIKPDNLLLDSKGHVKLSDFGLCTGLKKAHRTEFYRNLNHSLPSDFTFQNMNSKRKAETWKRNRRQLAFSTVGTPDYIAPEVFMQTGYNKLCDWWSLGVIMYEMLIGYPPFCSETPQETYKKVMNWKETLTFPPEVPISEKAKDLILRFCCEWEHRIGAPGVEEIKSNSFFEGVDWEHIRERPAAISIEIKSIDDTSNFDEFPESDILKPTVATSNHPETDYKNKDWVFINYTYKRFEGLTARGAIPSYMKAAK
Assay [9] addresses 1-phosphatidylinositol 3-phosphate 5-kinase (Homo sapiens) (UniProt Q9Y2I7). Description: Selectivity interaction (ActivX KiNativ screen (kinase selectivity in THP-1 cell lysates)) EUB0000639a PIKFYVE. The assay is classed as subcellular. To be noted: lysate.
Assay [10] deals with 5'-AMP-activated protein kinase catalytic subunit alpha-2 (Homo sapiens) (UniProt P54646). Description: Selectivity interaction (ActivX KiNativ screen (kinase selectivity in THP-1 cell lysates)) EUB0000639a PRKAA2. The following applies: lysate, at 1 µM. The assay is classed as subcellular.
Sequence of 5'-AMP-activated protein kinase catalytic subunit alpha-2 (Homo sapiens) (P54646 whole entry, looked up): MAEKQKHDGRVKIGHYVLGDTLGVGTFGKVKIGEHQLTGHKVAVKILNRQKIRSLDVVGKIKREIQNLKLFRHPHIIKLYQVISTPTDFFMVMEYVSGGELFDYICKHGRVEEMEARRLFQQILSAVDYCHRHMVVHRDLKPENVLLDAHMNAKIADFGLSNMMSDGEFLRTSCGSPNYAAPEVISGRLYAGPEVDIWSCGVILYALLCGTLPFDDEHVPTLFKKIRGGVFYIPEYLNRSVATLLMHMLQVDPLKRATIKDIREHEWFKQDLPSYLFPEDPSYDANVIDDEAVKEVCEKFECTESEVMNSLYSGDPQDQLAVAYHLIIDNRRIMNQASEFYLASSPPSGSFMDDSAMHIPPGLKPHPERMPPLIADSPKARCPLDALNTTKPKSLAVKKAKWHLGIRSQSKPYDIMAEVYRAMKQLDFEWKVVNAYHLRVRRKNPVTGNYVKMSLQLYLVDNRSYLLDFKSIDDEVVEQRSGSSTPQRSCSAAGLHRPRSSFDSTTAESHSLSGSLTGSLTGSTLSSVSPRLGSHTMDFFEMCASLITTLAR
Assay [11] addresses Mitogen-activated protein kinase 9 (Homo sapiens, UniProt P45984). Description: Selectivity interaction (KinomeScan (DiscoverX)) EUB0000229b MAPK9. To be noted: at 10 µM.
Assay [12] addresses T3, Serine/threonine-protein kinase Nek2 (Homo sapiens) (UniProt P51955).
T3 sequence (whole entry): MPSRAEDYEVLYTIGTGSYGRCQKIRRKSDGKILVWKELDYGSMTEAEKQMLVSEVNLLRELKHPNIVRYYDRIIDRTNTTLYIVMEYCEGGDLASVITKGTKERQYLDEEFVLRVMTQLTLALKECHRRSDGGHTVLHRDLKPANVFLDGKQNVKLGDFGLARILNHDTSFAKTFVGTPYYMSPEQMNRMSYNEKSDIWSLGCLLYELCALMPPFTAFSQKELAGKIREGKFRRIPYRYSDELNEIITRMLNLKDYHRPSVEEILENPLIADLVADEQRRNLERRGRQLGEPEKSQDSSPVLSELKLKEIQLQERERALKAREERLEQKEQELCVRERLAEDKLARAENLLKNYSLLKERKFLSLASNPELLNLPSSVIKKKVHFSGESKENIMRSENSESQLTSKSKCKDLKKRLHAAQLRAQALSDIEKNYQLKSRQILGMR
The assay is described as follows: Selectivity interaction (Kinase panel (literature)) EUB0001199aCl NEK2. The following applies: at 1 µM.

Sequence of 1-phosphatidylinositol 3-phosphate 5-kinase (Homo sapiens) (Q9Y2I7 whole entry): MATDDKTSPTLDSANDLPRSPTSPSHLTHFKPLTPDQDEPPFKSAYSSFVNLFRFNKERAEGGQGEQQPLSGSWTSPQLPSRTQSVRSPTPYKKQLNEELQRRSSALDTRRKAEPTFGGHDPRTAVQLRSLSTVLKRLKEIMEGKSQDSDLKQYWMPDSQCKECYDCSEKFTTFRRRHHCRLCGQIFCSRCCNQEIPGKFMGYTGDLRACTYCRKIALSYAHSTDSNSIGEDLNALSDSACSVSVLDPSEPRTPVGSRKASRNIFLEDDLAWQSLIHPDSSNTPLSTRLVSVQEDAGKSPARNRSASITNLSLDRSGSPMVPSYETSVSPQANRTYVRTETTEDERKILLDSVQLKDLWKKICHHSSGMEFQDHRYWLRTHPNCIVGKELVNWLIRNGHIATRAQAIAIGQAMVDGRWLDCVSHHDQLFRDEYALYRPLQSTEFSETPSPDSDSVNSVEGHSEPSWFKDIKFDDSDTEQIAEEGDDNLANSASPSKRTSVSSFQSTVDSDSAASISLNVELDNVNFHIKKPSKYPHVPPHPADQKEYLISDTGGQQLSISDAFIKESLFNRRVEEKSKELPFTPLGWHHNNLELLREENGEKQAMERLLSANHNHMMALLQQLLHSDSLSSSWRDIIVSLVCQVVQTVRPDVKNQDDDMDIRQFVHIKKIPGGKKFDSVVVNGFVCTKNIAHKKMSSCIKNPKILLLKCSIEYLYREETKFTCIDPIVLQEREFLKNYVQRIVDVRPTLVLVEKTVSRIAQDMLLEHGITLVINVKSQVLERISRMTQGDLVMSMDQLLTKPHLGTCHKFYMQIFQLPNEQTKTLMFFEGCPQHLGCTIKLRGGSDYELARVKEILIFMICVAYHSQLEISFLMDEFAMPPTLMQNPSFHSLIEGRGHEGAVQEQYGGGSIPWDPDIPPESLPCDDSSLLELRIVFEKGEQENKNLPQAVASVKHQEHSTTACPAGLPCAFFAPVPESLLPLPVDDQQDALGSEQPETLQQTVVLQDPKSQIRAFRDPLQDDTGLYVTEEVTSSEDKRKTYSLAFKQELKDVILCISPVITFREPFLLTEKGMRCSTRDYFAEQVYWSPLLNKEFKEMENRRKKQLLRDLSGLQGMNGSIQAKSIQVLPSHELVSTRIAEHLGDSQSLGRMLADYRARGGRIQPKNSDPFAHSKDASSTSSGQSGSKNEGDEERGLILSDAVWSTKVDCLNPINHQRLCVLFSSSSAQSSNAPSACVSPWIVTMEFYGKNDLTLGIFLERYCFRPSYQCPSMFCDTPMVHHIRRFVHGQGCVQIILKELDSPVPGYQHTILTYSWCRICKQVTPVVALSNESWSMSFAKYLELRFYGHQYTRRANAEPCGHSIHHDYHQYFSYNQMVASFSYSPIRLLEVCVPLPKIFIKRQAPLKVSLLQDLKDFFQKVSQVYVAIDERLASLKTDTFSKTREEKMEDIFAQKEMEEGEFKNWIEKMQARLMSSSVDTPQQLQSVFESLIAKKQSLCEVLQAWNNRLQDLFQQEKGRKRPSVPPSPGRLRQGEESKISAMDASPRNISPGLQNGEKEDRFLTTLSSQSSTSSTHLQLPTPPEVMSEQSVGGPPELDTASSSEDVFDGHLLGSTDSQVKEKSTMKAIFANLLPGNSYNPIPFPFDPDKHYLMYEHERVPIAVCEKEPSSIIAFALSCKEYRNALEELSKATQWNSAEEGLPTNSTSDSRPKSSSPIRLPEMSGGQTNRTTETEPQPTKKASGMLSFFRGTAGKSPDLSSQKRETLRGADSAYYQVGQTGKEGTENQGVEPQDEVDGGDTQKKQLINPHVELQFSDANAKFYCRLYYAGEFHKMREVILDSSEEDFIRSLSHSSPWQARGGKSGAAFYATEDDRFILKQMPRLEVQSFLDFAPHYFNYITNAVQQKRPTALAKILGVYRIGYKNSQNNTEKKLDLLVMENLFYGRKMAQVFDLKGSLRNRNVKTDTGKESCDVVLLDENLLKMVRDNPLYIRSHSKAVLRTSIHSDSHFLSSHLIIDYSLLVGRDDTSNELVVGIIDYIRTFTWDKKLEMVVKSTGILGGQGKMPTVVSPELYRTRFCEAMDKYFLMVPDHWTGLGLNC
Sequence of Mitogen-activated protein kinase 9 (P45984 whole entry, looked up): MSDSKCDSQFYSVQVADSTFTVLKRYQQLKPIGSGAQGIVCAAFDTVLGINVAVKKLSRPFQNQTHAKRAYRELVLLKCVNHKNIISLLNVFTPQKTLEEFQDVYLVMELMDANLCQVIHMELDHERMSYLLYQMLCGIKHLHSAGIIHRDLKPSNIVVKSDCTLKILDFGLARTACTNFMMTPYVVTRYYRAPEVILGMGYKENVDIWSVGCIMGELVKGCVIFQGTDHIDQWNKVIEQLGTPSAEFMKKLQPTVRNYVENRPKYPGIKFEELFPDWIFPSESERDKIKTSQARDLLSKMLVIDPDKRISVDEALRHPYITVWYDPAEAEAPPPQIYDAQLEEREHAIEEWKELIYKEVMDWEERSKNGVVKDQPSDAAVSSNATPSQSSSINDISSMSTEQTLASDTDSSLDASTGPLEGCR

In the case of `Cc1ccc(-c2ccc3c(ccc4sc5c(c43)NC[C@@H](C)NC5=O)n2)cn1`, the values for the % of inhibition in [1] and in [2] were -6% and 13%, respectively.
As for `C=CC(=O)Nc1cccc(C(=O)Nc2ccc(Nc3cc(-c4[nH]c(SC)nc4C)ccn3)cc2)c1`, the % of control came out at 94% in assay [3] (at 1 µM) and 87% in assay [3] (at 5 µM).
For the compound `Cc1cc([C@@H](C)Nc2ccccc2C(=O)O)c2nc(N3CCOCC3)cc(=O)n2c1` [AZD-6482], the % of control in assay [4] is 56%.
Compound `CCN(CC)CCCCNc1ncc2cc(-c3cc(OC)cc(OC)c3)c(NC(=O)NC(C)(C)C)nc2n1` came in with a % of control in [5] of 100%.
`CCC(=O)N1CCN(c2ccc(-n3c(=O)ccc4cnc5ccc(-c6cnc7ccccc7c6)cc5c43)cc2C(F)(F)F)CC1` returned a % of control in assay [6] of 75%.
In [7], `O=C(NOC[C@H](O)CO)c1ccc(F)c(F)c1Nc1ccc(I)cc1F` registered a % of control of 100%.
As for `Cn1cc(-n2cnc3c(NCc4nc5cc(Cl)c(Cl)cc5[nH]4)nc(N4CCOCC4)nc32)cn1`, the % of inhibition in [8] was -27%.
On to `CC[C@@H]1[C@H](F)C(=O)N[C@@H]1COc1nccc2cc(C(N)=O)c(OC)cc12` [ZIMLOVISERTIB], for which the % of inhibition in assay [9] (at 0.01 µM) was 11%; in assay [9] (at 0.04 µM), 8.8%; in [9] (at 0.2 µM) it was -0.1%; in [9] (at 1 µM), 21.3%; in assay [9] (at 5 µM) it was 29.2%; in assay [10], -4.6%.
For `COc1cc(N(C)c2ccnc3ccc(C(F)(F)F)cc23)cc(OC)c1OC`, the % binding in [11] is 80%.
In the case of `CN1Cc2nccc(-c3cn(C)nc3-c3ccc(F)cc3)c2C1=O`, the % of inhibition in assay [12] is 4%.
